Laboratory results taken from the supplement of paper PMC10307832.

Key:
Test in all cases: relative viability (nuclei count vs DMSO), 5 days (fraction); higher = more cells survive
[1] = compound: C1=CC=C2C(=C1)N=C(S2)C(C#N)C3=NC(=NC=C3)NCCC4=CN=CC=C4 + CS(=O)(=O)CCNCc1ccc(-c2ccc3ncnc(Nc4ccc(OCc5cccc(F)c5)c(Cl)c4)c3c2)o1 [Lapatinib] (partner 2 µM)
In short: (§1)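 Lung cancer cell lines in 1536-well plates got either a single drug or a fixed anchor-drug dose together with five library-drug doses (not always all listed) in √10 steps, by pin tool, on the day after seeding. Nuclei were counted after 5 days, and relative viability is the treated-to-vehicle ratio of nuclei counts. Values are medians of duplicate plates.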

[2] = compound: C#Cc1cccc(Nc2ncnc3cc(OC)c(OCCCCCCC(=O)NO)cc23)c1 [CUDC-101] + COc1cc2c(Oc3ccc(NC(=O)C4(C(=O)Nc5ccc(F)cc5)CC4)cc3F)ccnc2cc1OCCCN1CCOCC1 [Foretinib] (partner 0.25 µM)
In short: as §1

[3] = compound: C#Cc1cccc(Nc2ncnc3cc(OC)c(OCCCCCCC(=O)NO)cc23)c1 [CUDC-101] + Cc1nc(NC(=O)N2CCC[C@H]2C(N)=O)sc1-c1ccnc(C(C)(C)C(F)(F)F)c1 [Alpelisib] (partner 2 µM)
In short: as §1

[4] = compound: COc1cc(N2CCC(N3CCN(C)CC3)CC2)ccc1Nc1ncc(Cl)c(Nc2ccccc2S(=O)(=O)C(C)C)n1 [NVP-TAE684] + CS(=O)(=O)CCNCc1ccc(-c2ccc3ncnc(Nc4ccc(OCc5cccc(F)c5)c(Cl)c4)c3c2)o1 [Lapatinib] (partner 2 µM)
In short: as §1

| Cell Line | relative viability ([1]; first compound 0.005 µM) | relative viability ([1]; first compound 0.01581 µM) | relative viability ([1]; first compound 0.05 µM) | relative viability ([1]; first compound 0.1581 µM) | relative viability ([1]; first compound 0.5 µM) | relative viability ([2]; first compound 0.01 µM) | relative viability ([2]; first compound 0.03162 µM) | relative viability ([2]; first compound 0.1 µM) | relative viability ([2]; first compound 0.3162 µM) | relative viability ([2]; first compound 1 µM) | relative viability ([3]; first compound 0.01 µM) | relative viability ([3]; first compound 0.03162 µM) | relative viability ([3]; first compound 0.1 µM) | relative viability ([3]; first compound 0.3162 µM) | relative viability ([3]; first compound 1 µM) | relative viability ([4]; first compound 0.2 µM) | relative viability ([4]; first compound 0.6325 µM) | relative viability ([4]; first compound 2 µM) |
| --- | --- | --- | --- | --- | --- | --- | --- | --- | --- | --- | --- | --- | --- | --- | --- | --- | --- | --- |
| HCC-827 | 0.242 | 0.183 | 0.259 | 0.188 | 0.208 | 1 | 0.436 | 0.203 | 0.153 | 0.167 | 0.958 | 0.27 | 0.224 | 0.187 | 0.179 | 0.187 | 0.203 | 0.207 |
| LXF-289 | 0.803 | 0.914 | 0.915 | 1 | 0.864 | 0.972 | 0.932 | 0.937 | 0.877 | 0.497 | 0.991 | 1.08 | 0.994 | 1.07 | 0.815 | 0.946 |  | 0.861 |
| HOP-62 | 0.874 | 1 | 0.893 | 1.12 | 0.903 | 1.08 | 1.08 | 1.1 | 1.14 | 0.713 | 0.777 | 0.792 | 1.11 | 1.05 | 0.741 | 0.882 | 1 | 1.08 |
| LOU-NH91 | 0.799 | 0.758 | 0.688 | 0.739 | 0.724 | 0.862 | 0.634 | 0.552 | 0.589 | 0.584 | 0.652 | 0.533 | 0.509 | 0.574 | 0.482 | 0.781 | 0.648 | 0.516 |
| NCI-H1915 | 0.681 | 0.975 | 1.01 | 1.14 | 0.835 | 1.09 | 1.04 | 1.08 | 1.09 | 0.707 | 1.07 | 0.997 | 1.11 | 1.04 | 0.788 | 1.02 | 1.01 | 0.948 |
| NCI-H1395 | 0.953 |  | 1.17 | 1.08 | 1.08 | 1.05 | 0.846 | 1.01 | 1.09 | 0.844 | 0.993 | 0.998 | 1.1 | 1.18 | 0.823 | 1.29 | 0.921 | 0.859 |
| NCI-H1563 | 0.857 | 0.871 | 0.775 | 0.938 | 0.916 | 0.925 | 0.872 | 0.851 | 0.895 | 0.87 | 0.919 | 0.815 | 0.925 | 0.942 | 0.882 | 0.95 | 0.858 | 0.655 |
| COR-L23 | 0.629 | 1.15 | 1.01 | 1.29 | 0.71 | 1.12 | 0.947 | 0.924 | 0.96 | 0.494 | 0.968 | 0.753 | 0.661 | 0.617 | 0.349 | 0.661 | 0.898 | 0.538 |
| EBC-1 | 0.272 | 0.19 | 0.239 | 0.194 | 0.259 | 0.0994 | 0.109 | 0.109 | 0.0873 | 0.0665 | 0.796 | 0.709 | 0.696 | 0.721 | 0.319 | 0.221 | 0.223 | 0.192 |
| NCI-H1734 | 1.05 | 1.09 | 1.03 | 1.14 | 1.01 | 0.968 | 0.775 | 0.863 | 0.898 | 0.451 | 0.754 | 0.654 | 0.773 | 0.813 | 0.596 | 1.26 | 0.983 | 0.698 |
| NCI-H2405 | 1.05 | 0.817 | 1.11 | 1.11 | 1.02 | 1.09 | 0.991 | 1.08 | 1.16 | 1.04 | 0.952 | 0.574 | 0.87 | 1.22 | 0.603 | 1.26 | 0.815 | 0.55 |
| NCI-H2087 | 1.05 | 0.898 | 1.03 | 1.14 | 0.966 | 1.33 | 1.03 | 1.08 | 1.04 | 0.664 | 1.02 | 1.02 | 0.979 | 1.05 | 0.783 | 1.36 | 1.02 | 0.986 |
| NCI-H1793 | 0.748 | 0.647 | 0.668 | 0.828 | 0.792 | 0.669 | 0.449 | 0.628 | 0.5 | 0.403 | 0.796 | 0.41 | 0.658 | 0.627 | 0.546 | 0.925 | 0.499 | 0.611 |
| NCI-H2085 | 0.83 | 0.737 | 0.763 | 0.891 | 0.761 | 0.964 | 0.929 | 0.823 | 0.996 | 0.697 | 0.957 | 1.01 | 0.925 | 1.01 | 0.868 | 0.788 | 0.632 | 0.648 |
| NCI-H358 | 0.436 | 0.413 | 0.463 | 0.518 | 0.481 | 0.815 | 0.565 | 0.759 | 0.675 | 0.179 | 1.21 | 0.871 | 0.926 | 0.71 | 0.415 | 0.397 | 0.328 | 0.256 |
| NCI-H2023 | 0.793 | 0.85 | 0.793 | 1.2 | 0.711 | 0.759 | 0.672 | 0.836 | 0.764 | 0.615 | 0.552 | 0.581 | 0.564 | 0.663 | 0.565 | 1.1 | 0.622 | 0.193 |
| SW 1573 | 1.12 | 1.13 | 1.04 | 1.35 | 1.12 | 1.02 | 1.03 | 1.08 | 0.862 | 0.611 | 0.861 | 0.797 | 0.852 | 1.08 | 0.739 | 1.16 | 1.12 | 1.13 |
